Results taken from patent US20240124460A1, “METHODS AND COMPOSITIONS FOR TARGETED PROTEIN DEGRADATION” (Ranok Therapeutics (Hangzhou) Co. Ltd., priority 2020, published 2024).
Where two headings read alike, the source gives them in different places.

What was measured:
[1] = tested on: U-87 MG human glioblastoma; experiment: U87 MG CCK-8 proliferation assay; format: cell-based; conditions: Homo sapiens, U-87 MG cells, read-out: U87MG CCK-8
Experimental: (§1) The following cancer cell lines were employed: A549 human lung carcinoma (ATCC, #CCL-185); BT-474 human breast carcinoma (ATCC, #HTB-20); MDA-MB-231 human breast adenocarcinoma (ATCC, #CRM−HTB-26); MDA-MB-468 human breast adenocarcinoma (ATCC, #HTB-132); MV-4-11 human acute myeloid leukemia (ATCC, #CRL-9591); and U-87 MG human glioblastoma (ATCC, #HTB-14). Cell lines were cultured essentially according to ATCC recommendations.
(§2) 3-fold serial dilutions of each test compound were prepared ranging from 20 μM to 1.02 nM.
(§3) % Inhibition=100−(D−B)/(S−B)*100%. • S: Absorbance of cells treated with DMSO • D: Absorbance of compound-treated cells • B: Absorbance of medium with DMSO without cells

[2] = tested on: MV-4-11 human acute myeloid leukemia; experiment: MV-4-11 CCK-8 proliferation assay; format: cell-based; conditions: Homo sapiens, MV4-11; MV-4-11 cells, 72 hr
Experimental: as §1, §2, §3

Structure (SMILES): CCOc1cc(N2CCC(C(=O)N3CCN(Cc4ccc(-n5c(C(=O)NCCN6CCN(C)CC6)nnc5-c5cc(C(C)C)c(O)cc5O)cc4)CC3)CC2)ccc1Nc1ncc2c(n1)N(C)c1ccccc1C(=O)N2C [Compound 167, 5-(2,4-dihydroxy-5-isopropylphenyl)-4-(4-((4-(1-(4-((5,11-dimethyl-6-oxo-6,11-dihydro-5H-benzo[e]pyrimido[5,4-b][1,4]diazepin-2-yl)amino)-3-ethoxyphenyl)piperidine-4-carbonyl)piperazin-1-yl)methyl)phenyl)-N-(2-(4-methylpiperazin-1-yl)ethyl)-4H-1,2,4-triazole-3-carboxamide]
- EC50 ([1]; U-87 MG, 72 h): < 100 nM
- EC50 [2]: < 100 nM

Structure (SMILES): CCOc1cc(N2CCC(C(=O)NCc3ccc(CN(C)Cc4ccc(-n5c(O)nnc5-c5cc(C(C)C)c(O)cc5O)cc4)cc3)CC2)ccc1Nc1ncc2c(n1)N(S(C)(=O)=O)c1ccccc1C(=O)N2C [Compound 170, N-(4-(((4-(3-(2,4-dihydroxy-5-isopropylphenyl)-5-hydroxy-4H-1,2,4-triazol-4-yl)benzyl)(methyl)amino)methyl)benzyl)-1-(3-ethoxy-4-((5-methyl-11-(methylsulfonyl)-6-oxo-6,11-dihydro-5H-benzo[e]pyrimido[5,4-b][1,4]diazepin-2-yl)amino)phenyl)piperidine-4-carboxamide]
- EC50 ([1]; U-87 MG, 72 h): < 100 nM
- EC50 [2]: < 100 nM

Structure (SMILES): CCNC(=O)c1nnc(-c2cc(CC)c(O)cc2OC)n1-c1ccc(CN2CCN(CC3CCN(C(=O)C4CCN(c5ccc(Nc6ncc7c(n6)N(S(C)(=O)=O)c6ccccc6C(=O)N7C)c(OCC)c5)CC4)CC3)CC2)cc1 [Compound 171, 4-(4-((4-((1-(1-(3-ethoxy-4-((5-methyl-11-(methylsulfonyl)-6-oxo-6,11-dihydro-5H-benzo[e]pyrimido[5,4-b][1,4]diazepin-2-yl)amino)phenyl)piperidine-4-carbonyl)piperidin-4-yl)methyl)piperazin-1-yl)methyl)phenyl)-N-ethyl-5-(5-ethyl-4-hydroxy-2-methoxyphenyl)-4H-1,2,4-triazole-3-carboxamide]
- EC50 ([1]; U-87 MG, 72 h): > 1000 nM
- EC50 [2]: > 1000 nM

Structure (SMILES): CCOc1cc(N2CCC(C(=O)N3CCN(Cc4ccc(-n5c(C(=O)NCCN6CCN(S(C)(=O)=O)CC6)nnc5-c5cc(C(C)C)c(O)cc5O)cc4)CC3)CC2)ccc1Nc1ncc2c(n1)N(C)c1ccccc1C(=O)N2C [Compound 172, 5-(2,4-dihydroxy-5-isopropylphenyl)-4-(4-((4-(1-(4-((5,11-dimethyl-6-oxo-6,11-dihydro-5H-benzo[e]pyrimido[5,4-b][1,4]diazepin-2-yl)amino)-3-ethoxyphenyl)piperidine-4-carbonyl)piperazin-1-yl)methyl)phenyl)-N-(2-(4-(methylsulfonyl)piperazin-1-yl)ethyl)-4H-1,2,4-triazole-3-carboxamide]
- EC50 ([1]; U-87 MG, 72 h): < 100 nM
- EC50 [2]: < 100 nM

Structure (SMILES): CCOc1cc(N2CCC(C(=O)N3CCN(Cc4ccc(-n5c(C(=O)NCC(F)(F)C(F)(F)F)nnc5-c5cc(C(C)C)c(O)cc5O)cc4)CC3)CC2)ccc1Nc1ncc2c(n1)N(C)c1ccccc1C(=O)N2C [Compound 173, 5-(2,4-dihydroxy-5-isopropylphenyl)-4-(4-((4-(1-(4-((5,11-dimethyl-6-oxo-6,11-dihydro-5H-benzo[e]pyrimido[5,4-b][1,4]diazepin-2-yl)amino)-3-ethoxyphenyl)piperidine-4-carbonyl)piperazin-1-yl)methyl)phenyl)-N-(2,2,3,3,3-pentafluoropropyl)-4H-1,2,4-triazole-3-carboxamide]
- EC50 ([1]; U-87 MG, 72 h): < 100 nM
- EC50 [2]: < 100 nM

Structure (SMILES): CCOc1cc(N2CCC(C(=O)N3CCN(Cc4ccc(-n5c(C(=O)NCCN6CCN(S(C)(=O)=O)CC6)nnc5-c5cc(C(C)C)c(O)cc5O)cc4)CC3)CC2)ccc1Nc1ncc2c(n1)N(S(C)(=O)=O)c1ccccc1C(=O)N2C [Compound 174, 5-(2,4-dihydroxy-5-isopropylphenyl)-4-(4-((4-(1-(3-ethoxy-4-((5-methyl-11-(methylsulfonyl)-6-oxo-6,11-dihydro-5H-benzo[e]pyrimido[5,4-b][1,4]diazepin-2-yl)amino)phenyl)piperidine-4-carbonyl)piperazin-1-yl)methyl)phenyl)-N-(2-(4-(methylsulfonyl)piperazin-1-yl)ethyl)-4H-1,2,4-triazole-3-carboxamide]
- EC50 ([1]; U-87 MG, 72 h): < 100 nM
- EC50 [2]: < 100 nM

Structure (SMILES): CCOc1cc(N2CCC(C(=O)N3CCN(Cc4ccc(-n5c(C(=O)NCC(F)(F)C(F)(F)F)nnc5-c5cc(C(C)C)c(O)cc5O)cc4)CC3)CC2)ccc1Nc1ncc2c(n1)N(S(C)(=O)=O)c1ccccc1C(=O)N2C [Compound 175, 5-(2,4-dihydroxy-5-isopropylphenyl)-4-(4-((4-(1-(3-ethoxy-4-((5-methyl-11-(methylsulfonyl)-6-oxo-6,11-dihydro-5H-benzo[e]pyrimido[5,4-b][1,4]diazepin-2-yl)amino)phenyl)piperidine-4-carbonyl)piperazin-1-yl)methyl)phenyl)-N-(2,2,3,3,3-pentafluoropropyl)-4H-1,2,4-triazole-3-carboxamide]
- EC50 ([1]; U-87 MG, 72 h): < 100 nM
- EC50 [2]: < 100 nM

Structure (SMILES): CCOc1cc(N2CCC(CN3CCN(Cc4ccc(-n5c(C(=O)NCC(F)(F)F)nnc5-c5cc(C(C)C)c(O)cc5O)cc4)CC3)CC2)ccc1Nc1ncc2c(n1)N(S(C)(=O)=O)c1ccccc1C(=O)N2C [Compound 178, 5-(2,4-dihydroxy-5-isopropylphenyl)-4-(4-((4-((1-(3-ethoxy-4-((5-methyl-11-(methylsulfonyl)-6-oxo-6,11-dihydro-5H-benzo[e]pyrimido[5,4-b][1,4]diazepin-2-yl)amino)phenyl)piperidin-4-yl)methyl)piperazin-1-yl)methyl)phenyl)-N-(2,2,2-trifluoroethyl)-4H-1,2,4-triazole-3-carboxamide]
- EC50 ([1]; U-87 MG, 72 h): < 100 nM
- EC50 [2]: < 100 nM

Structure (SMILES): CCOc1cc(N2CCC(CN3CCC(CN4CCN(Cc5ccc(-n6c(C(=O)NC(C)C(F)(F)F)nnc6-c6cc(CC)c(O)cc6O)cc5)CC4)CC3)CC2)ccc1Nc1ncc2c(n1)N(S(C)(=O)=O)c1ccccc1C(=O)N2C (centres unmarked) [Compound 179, 4-(4-((4-((1-((1-(3-ethoxy-4-((5-methyl-11-(methylsulfonyl)-6-oxo-6,11-dihydro-5H-benzo[e]pyrimido[5,4-b][1,4]diazepin-2-yl)amino)phenyl)piperidin-4-yl)methyl)piperidin-4-yl)methyl)piperazin-1-yl)methyl)phenyl)-5-(5-ethyl-2,4-dihydroxyphenyl)-N-(1,1,1-trifluoropropan-2-yl)-4H-1,2,4-triazole-3-carboxamide 2,2,2-trifluoroacetate]
- EC50 ([1]; U-87 MG, 72 h): < 100 nM
- EC50 [2]: < 100 nM

Structure (SMILES): CCOc1cc(N2CCC(C(=O)N3CCN(Cc4ccc(-n5c(O)nnc5-c5cc(C(C)C)c(OP(=O)(O)O)cc5O)cc4)CC3)CC2)ccc1Nc1ncc2c(n1)N(C)c1ccccc1C(=O)N2C [Compound 180, 4-(4-(4-((4-(1-(4-((5,11-dimethyl-6-oxo-6,11-dihydro-5H-benzo[e]pyrimido[5,4-b][1,4]diazepin-2-yl)amino)-3-ethoxyphenyl)piperidine-4-carbonyl)piperazin-1-yl)methyl)phenyl)-5-hydroxy-4H-1,2,4-triazol-3-yl)-5-hydroxy-2-isopropylphenyl dihydrogen phosphate]
- EC50 ([1]; 72 hr): < 100 nM
- EC50 [2]: < 100 nM

Structure (SMILES): CCOc1cc(N2CCC(CN3CCC(CN4CCN(Cc5ccc(-n6c(C(=O)NC(C)C(F)(F)F)nnc6-c6cc(C(C)C)c(O)cc6O)cc5)CC4)CC3)CC2)ccc1Nc1ncc2c(n1)N(S(C)(=O)=O)c1ccccc1C(=O)N2C (centres unmarked) [Compound 181, 5-(2,4-dihydroxy-5-isopropylphenyl)-4-(4-((4-((1-((1-(3-ethoxy-4-((5-methyl-11-(methylsulfonyl)-6-oxo-6,11-dihydro-5H-benzo[e]pyrimido[5,4-b][1,4]diazepin-2-yl)amino)phenyl)piperidin-4-yl)methyl)piperidin-4-yl)methyl)piperazin-1-yl)methyl)phenyl)-N-(1,1,1-trifluoropropan-2-yl)-4H-1,2,4-triazole-3-carboxamide]
- EC50 ([1]; U-87 MG, 72 h): 100 to 1000 nM
- EC50 [2]: < 100 nM

Structure (SMILES): CCOc1cc(N2CCC(CN3CC4(CCN(Cc5ccc(-n6c(O)nnc6-c6cc(C(C)C)c(O)cc6O)cc5)CC4)C3)CC2)ccc1Nc1ncc2c(n1)N(S(C)(=O)=O)c1ccccc1C(=O)N2C [Compound 183, 2-((4-(4-((7-(4-(3-(2,4-dihydroxy-5-isopropylphenyl)-5-hydroxy-4H-1,2,4-triazol-4-yl)benzyl)-2,7-diazaspiro[3.5]nonan-2-yl)methyl)piperidin-1-yl)-2-ethoxyphenyl)amino)-5-methyl-11-(methylsulfonyl)-5,11-dihydro-6H-benzo[e]pyrimido[5,4-b][1,4]diazepin-6-one]
- EC50 ([1]; U-87 MG, 72 h): 100 to 1000 nM
- EC50 [2]: < 100 nM

Structure (SMILES): CCOc1cc(N2CCC(CN3CCC4(CC3)CN(Cc3ccc(-n5c(O)nnc5-c5cc(C(C)C)c(O)cc5O)cc3)C4)CC2)ccc1Nc1ncc2c(n1)N(S(C)(=O)=O)c1ccccc1C(=O)N2C [Compound 184, 2-((4-(4-((2-(4-(3-(2,4-dihydroxy-5-isopropylphenyl)-5-hydroxy-4H-1,2,4-triazol-4-yl)benzyl)-2,7-diazaspiro[3.5]nonan-7-yl)methyl)piperidin-1-yl)-2-ethoxyphenyl)amino)-5-methyl-11-(methylsulfonyl)-5,11-dihydro-6H-benzo[e]pyrimido[5,4-b][1,4]diazepin-6-one]
- EC50 ([1]; U-87 MG, 72 h): 100 to 1000 nM
- EC50 [2]: < 100 nM
